Patent US6706663B2, “Herbicidal 3-heterocyclic substituted benzisothiazole and benzisoxazole compounds” (Wyeth, priority 2000, dated 2004)

Legend:
[1] = tested on: ABUTH (Abutilon theophrasti); experiment: Postemergence herbicidal evaluation; format: in vivo, Medic.; conditions: postemergence
Procedure, shortened: (§1)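 Seedlings grown about two weeks in flats, sprayed, then kept under standard greenhouse care. Rated visually 4–5 weeks after treatment on a 0–9 scale (stand, vigour, malformation, size, chlorosis, overall appearance) relative to untreated control; repeat tests averaged.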

GALAP (Galium aparine) [2] = experiment: Postemergence herbicidal evaluation; format: in vivo; conditions: postemergence
Procedure, shortened: as §1

[3] = tested on: IPOHE (Ipomoea hederacea); experiment: Postemergence herbicidal evaluation; format: in vivo, (L.) Jacq.; conditions: postemergence
Procedure, shortened: as §1

SETVI (Setaria viridis) [4] = experiment: Postemergence herbicidal evaluation; format: in vivo, (L.) Beau; conditions: postemergence
Procedure, shortened: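 Visual injury score (0-9: stand, vigor, malformation, size, chlorosis, overall appearance vs untreated control) taken four to five weeks post-spray. Two-week-old seedlings received about 0.0040 to 1.000 kg/ha active compound in acetone/water with 0.5% TWEEN 20.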

[5] = tested on: GLXMAW (Soybean, Williams); experiment: Postemergence herbicidal evaluation; format: in vivo, Glycine max, (L.) Merr. cv Williams; conditions: postemergence
Procedure, shortened: as §1

[6] = tested on: TRZAWR (Wheat, Winter, cv Riband); experiment: Postemergence herbicidal evaluation; format: in vivo, Triticum aestivum; conditions: postemergence
Procedure, shortened: as §1

[7] = tested on: ABUTH (Abutilon theophrasti); experiment: Preemergence herbicidal evaluation; format: in vivo, Medic.; conditions: rated 4-5 weeks after treatment
[8] = tested on: AMBEL (Ambrosia artemisifolia); experiment: Preemergence herbicidal evaluation; format: in vivo, L.; conditions: rated 4-5 weeks after treatment
Procedure, shortened: (§2)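 Visual 0–9 rating versus control (stand, vigor, malformation, size, chlorosis, overall appearance), scored four to five weeks post-treatment. Preemergence spray of aqueous acetone solution onto freshly seeded soil cups; plants grown under conventional greenhouse care.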

[9] = tested on: CASOB (Cassia obtusifolia); experiment: Preemergence herbicidal evaluation; format: in vivo, L.; conditions: rated 4-5 weeks after treatment
Procedure, shortened: as §2

[10] = tested on: CHEAL (Chenopodium album); experiment: Preemergence herbicidal evaluation; format: in vivo, L.; conditions: rated 4-5 weeks after treatment
Procedure, shortened: as §2

GALAP (Galium aparine) [11] = experiment: Preemergence herbicidal evaluation; format: in vivo; conditions: rated 4-5 weeks after treatment
Procedure, shortened: as §2

[12] = tested on: ECHCG (Echinochloa crus-galli); experiment: Preemergence herbicidal evaluation; format: in vivo, (L.) Beau; conditions: rated 4-5 weeks after treatment
Procedure, shortened: as §2

SETVI (Setaria viridis) [13] = experiment: Preemergence herbicidal evaluation; format: in vivo, (L.) Beau; conditions: rated 4-5 weeks after treatment
Procedure, shortened: as §2

ZEAMX (Corn, Field) = experiment: Preemergence herbicidal evaluation; format: in vivo, Zea mays, L.; conditions: rated 4-5 weeks after treatment
[14] = tested on: MOOVA (Monochoria vaginalis); experiment: Flooded paddy, preemergence weed control; format: in vivo, Presl.; conditions: rated 3-4 weeks after treatment, 0-9 rating scale
Procedure, shortened: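 Visual 0-9 rating versus control, scoring stand, vigor, malformation, size, chlorosis and overall appearance. Silt loam soil, propagules in top 0.5 cm; flood depth 1.5–3 cm held for the whole test; greenhouse.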

ORYSAT (Rice, Tebonnet) = experiment: Flooded paddy, post-transplant rice tolerance; format: in vivo, Oryza sativa, (L.) Tebonnet; conditions: flooded paddy, post-transplant rice, rated 3-4 weeks after treatment, 0-9 rating scale
Procedure, shortened: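 Steps: transplant two ten-day-old seedlings into silt loam; flood to 1.5-3 cm above soil; apply herbicide post-transplant; maintain water on greenhouse benches; rate stand, vigor, malformation, size and chlorosis on a 0-9 visual scale versus control.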

C[C@@H]1C[C@H](C)OC(c2nsc3cc(F)c(-n4c(=O)cc(C(F)(F)F)n(C)c4=O)cc23)O1 (stereo partly drawn) [Compound 67, 3-[3-[(4R,6S)-4,6-dimethyl-m-dioxan-2-yl]-6-fluoro-1,2-benzisothiazol-5-yl]-1-methyl-6-(trifluoromethyl)uracil]
ABUTH herbicidal rating ([1]; rate 0.0320 kg/ha): 9.0
ABUTH herbicidal rating ([1]; rate 0.0620 kg/ha): 9.0
GALAP herbicidal rating (GALAP (Galium aparine) [2]; rate 0.0320 kg/ha): 6.0
GALAP herbicidal rating (GALAP (Galium aparine) [2]; rate 0.0620 kg/ha): 5.0
IPOHE herbicidal rating ([3]; rate 0.0320 kg/ha): 9.0
IPOHE herbicidal rating ([3]; rate 0.0620 kg/ha): 9.0
SETVI herbicidal rating (SETVI (Setaria viridis) [4]; rate 0.0320 kg/ha): 9.0
SETVI herbicidal rating (SETVI (Setaria viridis) [4]; rate 0.0620 kg/ha): 7.0
GLXMAW herbicidal rating ([5]; rate 0.0320 kg/ha): 9.0
GLXMAW herbicidal rating ([5]; rate 0.0620 kg/ha): 9.0
TRZAWR herbicidal rating ([6]; rate 0.0320 kg/ha): 4.0
TRZAWR herbicidal rating ([6]; rate 0.0620 kg/ha): 4.0
Preemergence herbicidal rating ABUTH ([7]; Rate 0.0620 kg/ha): 9.0
Preemergence herbicidal rating ABUTH ([7]; Rate 0.1250 kg/ha): 9.0
Preemergence herbicidal rating AMBEL ([8]; Rate 0.0620 kg/ha): 9.0
Preemergence herbicidal rating AMBEL ([8]; Rate 0.1250 kg/ha): 9.0
Preemergence herbicidal rating CASOB ([9]; Rate 0.0620 kg/ha): 5.5
Preemergence herbicidal rating CASOB ([9]; Rate 0.1250 kg/ha): 5.0
Preemergence herbicidal rating CHEAL ([10]; Rate 0.0620 kg/ha): 9.0
Preemergence herbicidal rating CHEAL ([10]; Rate 0.1250 kg/ha): 9.0
Preemergence herbicidal rating GALAP (GALAP (Galium aparine) [11]; Rate 0.0620 kg/ha): 8.0
Preemergence herbicidal rating GALAP (GALAP (Galium aparine) [11]; Rate 0.1250 kg/ha): 9.0
Preemergence herbicidal rating ECHCG ([12]; Rate 0.0620 kg/ha): 9.0
Preemergence herbicidal rating ECHCG ([12]; Rate 0.1250 kg/ha): 9.0
Preemergence herbicidal rating SETVI (SETVI (Setaria viridis) [13]; Rate 0.0620 kg/ha): 9.0
Preemergence herbicidal rating SETVI (SETVI (Setaria viridis) [13]; Rate 0.1250 kg/ha): 9.0
Preemergence herbicidal rating ZEAMX (ZEAMX (Corn, Field); Rate 0.0620 kg/ha): 9.0
Preemergence herbicidal rating ZEAMX (ZEAMX (Corn, Field); Rate 0.1250 kg/ha): 9.0
herbicidal rating, MOOVA ([14]; rate 0.0080 kg/ha): 0.0
herbicidal rating, MOOVA ([14]; rate 0.0320 kg/ha): 9.0
herbicidal rating, MOOVA ([14]; rate 0.1250 kg/ha): 9.0
herbicidal rating, ORYSAT (rice tolerance) (ORYSAT (Rice, Tebonnet); rate 0.0080 kg/ha): 5.5
herbicidal rating, ORYSAT (rice tolerance) (ORYSAT (Rice, Tebonnet); rate 0.0320 kg/ha): 9.0
herbicidal rating, ORYSAT (rice tolerance) (ORYSAT (Rice, Tebonnet); rate 0.1250 kg/ha): 9.0

Cc1sccc1-c1nsc2ccc(-n3c(=O)cc(C(F)(F)F)n(C)c3=O)cc12 [Compound 68, 2,4(1H,3H)-pyrimidinedione, 1-methyl-3-[3-(2-methyl-3-thienyl)-1,2-benzisothiazol-5-yl]-6-(trifluoromethyl)-]
ABUTH herbicidal rating ([1]; rate 0.0320 kg/ha): 9.0
ABUTH herbicidal rating ([1]; rate 0.0620 kg/ha): 9.0
GALAP herbicidal rating (GALAP (Galium aparine) [2]; rate 0.0320 kg/ha): 9.0
GALAP herbicidal rating (GALAP (Galium aparine) [2]; rate 0.0620 kg/ha): 9.0
IPOHE herbicidal rating ([3]; rate 0.0320 kg/ha): 9.0
IPOHE herbicidal rating ([3]; rate 0.0620 kg/ha): 9.0
SETVI herbicidal rating (SETVI (Setaria viridis) [4]; rate 0.0320 kg/ha): 4.0
SETVI herbicidal rating (SETVI (Setaria viridis) [4]; rate 0.0620 kg/ha): 8.0
GLXMAW herbicidal rating ([5]; rate 0.0320 kg/ha): 6.5
GLXMAW herbicidal rating ([5]; rate 0.0620 kg/ha): 7.0
TRZAWR herbicidal rating ([6]; rate 0.0320 kg/ha): 4.0
TRZAWR herbicidal rating ([6]; rate 0.0620 kg/ha): 4.5
Preemergence herbicidal rating ABUTH ([7]; Rate 0.0620 kg/ha): 8.5
Preemergence herbicidal rating ABUTH ([7]; Rate 0.1250 kg/ha): 9.0
Preemergence herbicidal rating ABUTH ([7]; Rate 0.2500 kg/ha): 9.0
Preemergence herbicidal rating AMBEL ([8]; Rate 0.0620 kg/ha): 3.5
Preemergence herbicidal rating AMBEL ([8]; Rate 0.1250 kg/ha): 5.0
Preemergence herbicidal rating AMBEL ([8]; Rate 0.2500 kg/ha): 9.0
Preemergence herbicidal rating CASOB ([9]; Rate 0.0620 kg/ha): 0.5
Preemergence herbicidal rating CASOB ([9]; Rate 0.1250 kg/ha): 3.0
Preemergence herbicidal rating CASOB ([9]; Rate 0.2500 kg/ha): 5.5
Preemergence herbicidal rating CHEAL ([10]; Rate 0.0620 kg/ha): 9.0
Preemergence herbicidal rating CHEAL ([10]; Rate 0.1250 kg/ha): 9.0
Preemergence herbicidal rating CHEAL ([10]; Rate 0.2500 kg/ha): 9.0
Preemergence herbicidal rating GALAP (GALAP (Galium aparine) [11]; Rate 0.0620 kg/ha): 7.0
Preemergence herbicidal rating GALAP (GALAP (Galium aparine) [11]; Rate 0.1250 kg/ha): 6.0
Preemergence herbicidal rating GALAP (GALAP (Galium aparine) [11]; Rate 0.2500 kg/ha): 9.0
Preemergence herbicidal rating ECHCG ([12]; Rate 0.0620 kg/ha): 8.5
Preemergence herbicidal rating ECHCG ([12]; Rate 0.1250 kg/ha): 9.0
Preemergence herbicidal rating ECHCG ([12]; Rate 0.2500 kg/ha): 9.0
Preemergence herbicidal rating SETVI (SETVI (Setaria viridis) [13]; Rate 0.0620 kg/ha): 9.0
Preemergence herbicidal rating SETVI (SETVI (Setaria viridis) [13]; Rate 0.1250 kg/ha): 9.0
Preemergence herbicidal rating SETVI (SETVI (Setaria viridis) [13]; Rate 0.2500 kg/ha): 9.0
Preemergence herbicidal rating ZEAMX (ZEAMX (Corn, Field); Rate 0.0620 kg/ha): 2.5
Preemergence herbicidal rating ZEAMX (ZEAMX (Corn, Field); Rate 0.1250 kg/ha): 4.0
Preemergence herbicidal rating ZEAMX (ZEAMX (Corn, Field); Rate 0.2500 kg/ha): 6.0
herbicidal rating, MOOVA ([14]; rate 0.0080 kg/ha): 7.0
herbicidal rating, MOOVA ([14]; rate 0.0320 kg/ha): 9.0
herbicidal rating, MOOVA ([14]; rate 0.1250 kg/ha): 9.0
herbicidal rating, ORYSAT (rice tolerance) (ORYSAT (Rice, Tebonnet); rate 0.0080 kg/ha): 1.5
herbicidal rating, ORYSAT (rice tolerance) (ORYSAT (Rice, Tebonnet); rate 0.0320 kg/ha): 2.5
herbicidal rating, ORYSAT (rice tolerance) (ORYSAT (Rice, Tebonnet); rate 0.1250 kg/ha): 3.5

Cn1c(C(F)(F)F)cc(=O)n(-c2ccc3snc(C4OCC5(CO4)CO5)c3c2)c1=O (centres unmarked) [Compound 70, 1-methyl-3-(3-spiro[m-dioxane-5,2′-oxiran]-2-yl-1,2-benzisothiazol-5-yl)-6-(trifluoromethyl)uracil]
ABUTH herbicidal rating ([1]; rate 0.0320 kg/ha): 9.0
ABUTH herbicidal rating ([1]; rate 0.0620 kg/ha): 9.0
GALAP herbicidal rating (GALAP (Galium aparine) [2]; rate 0.0320 kg/ha): 8.0
GALAP herbicidal rating (GALAP (Galium aparine) [2]; rate 0.0620 kg/ha): 9.0
IPOHE herbicidal rating ([3]; rate 0.0320 kg/ha): 7.0
IPOHE herbicidal rating ([3]; rate 0.0620 kg/ha): 9.0
SETVI herbicidal rating (SETVI (Setaria viridis) [4]; rate 0.0320 kg/ha): 9.0
SETVI herbicidal rating (SETVI (Setaria viridis) [4]; rate 0.0620 kg/ha): 9.0
GLXMAW herbicidal rating ([5]; rate 0.0320 kg/ha): 7.0
GLXMAW herbicidal rating ([5]; rate 0.0620 kg/ha): 8.5
TRZAWR herbicidal rating ([6]; rate 0.0320 kg/ha): 5.0
TRZAWR herbicidal rating ([6]; rate 0.0620 kg/ha): 5.5
Preemergence herbicidal rating ABUTH ([7]; Rate 0.0620 kg/ha): 9.0
Preemergence herbicidal rating ABUTH ([7]; Rate 0.1250 kg/ha): 9.0
Preemergence herbicidal rating AMBEL ([8]; Rate 0.0620 kg/ha): 7.0
Preemergence herbicidal rating AMBEL ([8]; Rate 0.1250 kg/ha): 9.0
Preemergence herbicidal rating CASOB ([9]; Rate 0.0620 kg/ha): 2.0
Preemergence herbicidal rating CASOB ([9]; Rate 0.1250 kg/ha): 2.0
Preemergence herbicidal rating CHEAL ([10]; Rate 0.0620 kg/ha): 9.0
Preemergence herbicidal rating CHEAL ([10]; Rate 0.1250 kg/ha): 9.0
Preemergence herbicidal rating GALAP (GALAP (Galium aparine) [11]; Rate 0.0620 kg/ha): 7.0
Preemergence herbicidal rating GALAP (GALAP (Galium aparine) [11]; Rate 0.1250 kg/ha): 9.0
Preemergence herbicidal rating ECHCG ([12]; Rate 0.0620 kg/ha): 3.0
Preemergence herbicidal rating ECHCG ([12]; Rate 0.1250 kg/ha): 7.0
Preemergence herbicidal rating SETVI (SETVI (Setaria viridis) [13]; Rate 0.0620 kg/ha): 6.0
Preemergence herbicidal rating SETVI (SETVI (Setaria viridis) [13]; Rate 0.1250 kg/ha): 9.0
Preemergence herbicidal rating ZEAMX (ZEAMX (Corn, Field); Rate 0.0620 kg/ha): 2.0
Preemergence herbicidal rating ZEAMX (ZEAMX (Corn, Field); Rate 0.1250 kg/ha): 9.0
herbicidal rating, MOOVA ([14]; rate 0.0080 kg/ha): 0.0
herbicidal rating, MOOVA ([14]; rate 0.0320 kg/ha): 0.0
herbicidal rating, MOOVA ([14]; rate 0.1250 kg/ha): 0.0
herbicidal rating, ORYSAT (rice tolerance) (ORYSAT (Rice, Tebonnet); rate 0.0080 kg/ha): 0.0
herbicidal rating, ORYSAT (rice tolerance) (ORYSAT (Rice, Tebonnet); rate 0.0320 kg/ha): 0.0
herbicidal rating, ORYSAT (rice tolerance) (ORYSAT (Rice, Tebonnet); rate 0.1250 kg/ha): 0.0
